The record followed here is ChEMBL document CHEMBL1143225, “Neurosteroid analogues. 14. Alternative ring system scaffolds: GABA modulatory and anesthetic actions of cyclopenta[b]phenanthrenes and cyclopenta[b]anthracenes” (J Med Chem, 2008).

The nature of assay [1]: Displacement of [35S]TBPS from GABAA receptor in rat brain membrane. Format: cell membranes. (Loss of bound radioactivity is the signal in a displacement assay; it reports binding, not function.)
Assay [2] relates to Oocyte. The assay can be described thus: Activity at rat GABAA alpha-1-beta-2-gamma-2L receptor expressed in Xenopus lavies oocytes assessed as ratio of effect on current at 1 uM drug to absence of compound by electrophysiology method. Format: cell-based.
In assay [3] the test system is Oocyte. Nature of the assay: Activity at rat GABAA alpha-1-beta-2-gamma-2L receptor expressed in Xenopus lavies oocytes assessed as ratio of effect on current at 0.1 uM drug to absence of compound by electrophysiology method. Format: cell-based.
The subject of assay [4] is Oocyte. Nature of the assay: Activity at rat GABAA alpha-1-beta-2-gamma-2L receptor expressed in Xenopus lavies oocytes assessed as ratio of effect on current at 10 uM drug to absence of compound by electrophysiology method. Format: cell-based.
Assay [5] relates to Oocyte. The assay can be described thus: Activity at rat GABAA alpha-1-beta-2-gamma-2L receptor expressed in Xenopus laevis oocytes assessed as gating effect at 10 uM by electrophysiology method. Format: cell-based.
For assay [6], the system named is Xenopus laevis. The assay can be described thus: Anesthetic effect on Xenopus lavies tadpole assessed as loss of righting reflex. Format: functional.
In assay [7] the test system is Xenopus laevis. Nature of the assay: Anesthetic effect on Xenopus lavies tadpole assessed as loss of swimming reflex. The assay is classed as functional.
Assay [8] can be described thus: (§1) Activity at rat GABAA alpha-1-beta-2-gamma-2L receptor expressed in HEK293 cells assessed as macroscopic current amplitude by electrophysiological method. The assay is classed as cell-based.
In assay [9] the test system is HEK293. Described as §1. Format: cell-based.
A short description of assay [10]: (§2) Activity at rat GABAA alpha-1Q241L/Y410F receptor mutant expressed in HEK293 cells assessed as macroscopic current amplitude by electrophysiological method. The assay is classed as cell-based.
Assay [11] has as its system HEK293. Described as §2. The assay is classed as cell-based.
Assay [12] deals with Xenopus laevis. The assay can be described thus: Anesthetic effect on Xenopus lavies tadpole assessed as loss of swimming reflex at 10 uM. Format: functional, organism-based.

Active and inactive are the calls of the source. No cut-off for these calls is given here.

What is called IC50 is the concentration that inhibits the measured activity by half. Low readings indicate greater potency, high ones weaker potency. By EC50 is commonly meant the concentration that produces a half-maximal response. Regarding `C[C@]12C[C@H]3CC[C@@H]4C[C@@H](O)CC[C@H]4[C@@H]3C[C@@H]1CC[C@@]21CO1`, the concentration for half-maximal inhibition (IC50) in [1] is 40 nM. Besides, the Ratio was determined as 15.7 with Oocyte [2], 2.16 with Oocyte [3], 29.7 in the assay on Oocyte [4] and 0.15 in the assay on Oocyte [5]. For the same compound, the results for the ED50 with Xenopus laevis [6] and in the assay with Xenopus laevis [7] were 200 nM and 870 nM, respectively. Besides, the half-maximal effective concentration (EC50) in assay [8] was found to be 340 nM; in assay [10] it was 130 nM. The figures for the Activity in the assay on HEK293 [9] and with HEK293 [11] were 262% and 220%, respectively.
Regarding `C[C@]12CC[C@@H](O)C[C@@H]1CC[C@@H]1[C@@H]2CC[C@]2(C)C(=O)CC[C@@H]12` [ANDROSTERONE], in [1], the IC50 came out at 410 nM. For the same compound, the Ratio in the assay on Oocyte [2] was found to be 1.41; in the assay with Oocyte [3] it was 0.97; with Oocyte [4] it was 5.44; in the assay with Oocyte [5], 0.02. Also, the ED50 in the assay on Xenopus laevis [6] was 3380 nM. In addition, the outcome in the assay with Xenopus laevis [12] was inactive.
Compound `C[C@]12CC[C@@H]3C[C@H](CCO)CC[C@H]3[C@@H]1CC[C@@]21CO1` had an IC50 in assay [1] of 1580 nM. The Ratio came to 4.11 with Oocyte [2], 1.1 in the assay on Oocyte [3], 20 in the assay on Oocyte [4] and 0.04 in the assay on Oocyte [5]. Moreover, the ED50 in the assay on Xenopus laevis [6] was found to be 3170 nM; in the assay with Xenopus laevis [7] it was 5480 nM.
As to `C[C@]12CC[C@@H]3C[C@H](CCO)CC[C@H]3[C@@H]1CCC2=O`, in assay [1], the 50% inhibitory concentration (IC50) is 4170 nM. The Ratio worked out at 1.03 in the assay on Oocyte [2], 0.99 in the assay on Oocyte [3], 1.05 in the assay with Oocyte [4] and 0.03 with Oocyte [5]. The ED50 in the assay with Xenopus laevis [6] came out at 16400 nM. In addition, the result in the assay with Xenopus laevis [12] was inactive.
On to `C[C@]12C[C@H]3C[C@H]4CC[C@@H](O)C[C@@H]4C[C@@H]3C[C@@H]1CCC2=O`, for which, in assay [1], the IC50 turned out to be 250 nM. The Ratio in the assay on Oocyte [2] is 5.03; with Oocyte [3] it was 1.1; in the assay on Oocyte [4] it was 28.4; in the assay on Oocyte [5], 0.28. Further, the ED50 in the assay with Xenopus laevis [6] came out at 1860 nM; with Xenopus laevis [7], 5480 nM.
Compound `C[C@]12CC[C@@H](O)C[C@@H]1CC[C@@H]1[C@@H]2CC[C@@]2(C)[C@H]1CC[C@@]21CO1` returned a 50% inhibitory concentration (IC50) in assay [1] of 110 nM. In addition, the Ratio with Oocyte [2] turned out to be 21.9; in the assay on Oocyte [3] it was 3.11; with Oocyte [4], 33.7; in the assay with Oocyte [5], 0.22. For the same compound, the figures for the ED50 in the assay on Xenopus laevis [6] and in the assay with Xenopus laevis [7] were 1350 nM and 2760 nM, respectively. In addition, the EC50 in assay [8] was found to be 440 nM; in assay [10], 130 nM. Also, the Activity in the assay with HEK293 [9] is 269%; with HEK293 [11], 251%.
`C[C@]12C[C@H]3C[C@H]4CC[C@@H](O)C[C@@H]4C[C@@H]3C[C@@H]1CC[C@@]21CO1` showed a half-maximal inhibitory concentration (IC50) in assay [1] of 60 nM. In addition, the Ratio with Oocyte [2] was 10.8; in the assay on Oocyte [3] it was 1.53; in the assay with Oocyte [4], 26.3; with Oocyte [5], 0.16. Further, the figures for the ED50 in the assay with Xenopus laevis [6] and with Xenopus laevis [7] were 480 nM and 1730 nM, respectively. Further, the EC50 in [8] is 410 nM; in assay [10], 390 nM. Moreover, the Activity with HEK293 [9] amounted to 294%; in the assay on HEK293 [11], 237%.
In assay [1], `C[C@]12C[C@H]3CC[C@@H]4C[C@@H](O)CC[C@H]4[C@@H]3C[C@@H]1CCC2=O` returned an IC50 of 1440 nM. In addition, the Ratio was determined as 1.32 in the assay with Oocyte [2], 0.92 in the assay on Oocyte [3], 6.14 in the assay on Oocyte [4] and 0.05 in the assay with Oocyte [5]. In addition, the ED50 in the assay on Xenopus laevis [6] came to 3170 nM. Besides, the result in the assay with Xenopus laevis [12] was inactive.
Turning to `C[C@]12C[C@H]3CC[C@H](CCO)C[C@@H]3C[C@@H]1CCC2=O`, the IC50 in assay [1] was found to be 5010 nM. Moreover, the Ratio in the assay on Oocyte [2] is 1; with Oocyte [3], 1; with Oocyte [4] it was 2.42; in the assay on Oocyte [5], -0.02. The ED50 in the assay on Xenopus laevis [6] came out at 4010 nM. In addition, the result with Xenopus laevis [12] was inactive.
`C[C@]12C[C@H]3CC[C@H](CCO)C[C@@H]3C[C@@H]1CC[C@@]21CO1`: in [1], the IC50 was found to be 1170 nM. Besides, the Ratio is 1.54 in the assay on Oocyte [2], 0.86 in the assay on Oocyte [3], 5.37 in the assay with Oocyte [4] and 0.03 in the assay with Oocyte [5]. Further, the ED50 in the assay with Xenopus laevis [6] stood at 3460 nM. For the same compound, in the assay on Xenopus laevis [12], the outcome was inactive.
